Consider eight molecules from EP2402356A2, “Modified 2',3'-dideoxynucleosides for treatment infections caused by human immunodeficiency virus (HIV) multidrug resistant strains, method of their synthesis and the pharmaceutical agent containing these nucleosides” (Instytut Biochemii I Biofizyki Pan, priority 2010, dated 2012).

SMILES strings stand for the structures. Where two headings read alike, the source gives them in different places.

Data set [1] deals with Wild type pNL4-3. As to the kind of experiment: Antiviral activity (EC50), deCIPhR cell system, beta-galactosidase indicator cell readout. Type of data set: cell-based, HIV-1.
Data set [2] has as its system Recombin ant provirus from the patient 6021959. As to the kind of experiment: microbe, parasite or virus in culture. It counts as cell-based, HIV-1.
The subject of data set [3] is Recombin ant provirus from the patient 7007984. As to the kind of experiment: microbe, parasite or virus in culture. It counts as cell-based, HIV-1.
The test system of data set [4] is Wild type #. As to the kind of experiment: Antiviral activity (EC50) in CEMA and CEM-T4 cells. It counts as cell-based, HIV-1. The following applies: Human immunodeficiency virus 1; wild type # marked a,b = CEMA and CEM-T4 cells.
The subject of data set [5] is NNRTI (RTMDR) 5 resistant. Description: microbe, parasite or virus in culture. Type of data set: cell-based, HIV-1. The conditions noted are these: Human immunodeficiency virus 1.
The subject of data set [6] is NRTI (RTMC) resistant. Description: microbe, parasite or virus in culture. Type of data set: cell-based, HIV-1. The following applies: Human immunodeficiency virus 1.
For data set [7], the system named is deCIPhR™ cell system.
Data set [8] is described as follows: Cytotoxicity, Alamar Blue Cell Viability Assay. The following applies: deciphr cells. On the technique in general: The colour change of resazurin is a common sign of viable cells or microbes.
Setting [9] is: HIV-1 wild type pNL4-3, cells per table title (deCIPhR, CEMA, CEM-T4), row has no cell mark, presumably deCIPhR, read-out: EC50.
Setting [10] is: recombinant provirus from patient 6021959, RT resistance mutations M41 L, E44D, T69D, L741, K103N, V108I, V118I, M184V, M230L, T215Y, G333E, read-out: EC50.
Setting [11] is: recombinant provirus from patient 7007984, RT resistant mutations M41 L, K70R, A985, T215Y, read-out: EC50.
[12] abbreviates: Human immunodeficiency virus 1, CEM-T4.

Take `Cc1cn([C@H]2C[C@H](N=[N+]=[N-])[C@@H](COP(=O)(O)O)O2)c(=O)[nH]c1=O` [AZTM P, reference compound]: the EC50 (as a rule, the concentration at which the effect is half-maximal) in data set [1] (setting [9]) turned out to be 63 nM; in data set [2] (setting [10]), 1.71 µM; in data set [3] (setting [11]), 1030 nM.
For `Cc1cn([C@H]2C[C@H](F)[C@@H](COP(=O)(O)O)O2)c(=O)[nH]c1=O` [FLT MP, reference compound], in that order: 10 nM, 0.03 µM and 18 nM.
In the case of `COCCCCCCCCCCCC(=O)OC[C@H]1O[C@@H](n2cc(C)c(=S)[nH]c2=O)C[C@@H]1F` [WA2 1, 1-(2,3-dideoxy-3-fluoro-5-O-(12-methoxydodecanoyl)-b-D-ribofuranosyl)-4-thiothymine], the EC50 in data set [1] (setting [12]) worked out at 269 nM; in data set [2] (Human immunodeficiency virus 1) it was 9.26 µM; in data set [3] (Human immunodeficiency virus 1) it was 3150 nM; in data set [4], 330 nM; in data set [5], 550 nM; in data set [6], 180 nM. Further, the “cytotoxicity (CD50)” value in data set [7] is given as “not toxic”. In addition, in data set [8], the CC50 (as a rule, the concentration that lowers cell viability or growth by half) is > 200 µM.
`CCSCCCCCCCCCCCC(=O)OC[C@H]1O[C@@H](n2cc(C)c(=S)[nH]c2=O)C[C@@H]1F` [WA-2 2, 1-(2,3-dideoxy-5-O-(12-thioethyldodecanoyl)-3-fluoro-b-D-ribofuranosyl)-4-thiothymine]: the EC50 in data set [1] (setting [12]) turned out to be 998 nM; in data set [2] (Human immunodeficiency virus 1) it was 10 µM; in data set [3] (Human immunodeficiency virus 1), 5920 nM; in data set [4] it was 120 nM; in data set [6] it was 75 nM. Moreover, the “cytotoxicity (CD50)” value in data set [7] is on record as “not toxic”. The CC50 in data set [8] was > 200 µM.
Consider `CCSCCCCCCCCCCC(=O)OC[C@H]1O[C@@H](n2cc(C)c(=S)[nH]c2=O)C[C@@H]1F` [WA-2 3, 1-(5-O-(2,3-dideoxy-11-thioethylundecanoyl)-3-fluoro-b-D-ribofuranosyl)-4-thiothymine], for which the EC50 stood at 965 nM in data set [1] (setting [12]); 5.52 µM in data set [2] (Human immunodeficiency virus 1); 450 nM in data set [4]; 480 nM in data set [5]; 450 nM in data set [6]. The “cytotoxicity (CD50)” value in data set [7] is “not toxic”. Also, the CC50 in data set [8] was > 200 µM.
Turning to `Cc1cn([C@H]2C[C@H](F)[C@@H](COC(=O)CCCCCCCCCCCN=[N+]=[N-])O2)c(=O)[nH]c1=S` [WA- 2 0, 1-(5-O-(12-azidododecanoyl)-2,3-dideoxy-3-fluoro-b-D-ribofuranosyl)-4-thi othymine], the EC50 in data set [1] (setting [12]) was 822 nM; in data set [2] (Human immunodeficiency virus 1), 4.64 µM; in data set [3] (Human immunodeficiency virus 1) it was 2880 nM; in data set [4], 450 nM; in data set [5], 100 nM; in data set [6] it was ≤ 100000 nM. Moreover, the “cytotoxicity (CD50)” value in data set [7] is “not toxic”. In addition, the CC50 in data set [8] is > 200 µM.
Turning to `CCCCCCCCCCCCCC(=O)OC[C@H]1O[C@@H](n2cc(C)c(=S)[nH]c2=O)C[C@@H]1F` [WA- 18, 1-(2,3-dideoxy-3-fluoro-5-O-(12-tetradodecanoyl)-b-D-ribofuranosyl)-4-thio thymine], the EC50 in data set [1] (setting [12]) stood at 421 nM; in data set [2] (Human immunodeficiency virus 1), 8.34 µM; in data set [3] (Human immunodeficiency virus 1) it was 2400 nM; in data set [4], 130 nM; in data set [5], 45 nM; in data set [6], 150 nM. For the same molecule, the “cytotoxicity (CD50)” value in data set [7] is “not toxic”. Besides, the CC50 in data set [8] is > 200 µM.
As to `Cc1cn([C@H]2C[C@H](F)[C@@H](COC(=O)CCCCCCCCCCCBr)O2)c(=O)[nH]c1=S` [WA- 19, 1-(5-O-(12-bromododecanoyl)-2.3-dideoxy-3-fluoro-b-D-ribofuranosyl)-4-th iothymine], the concentration giving a half-maximal response (EC50) came to 710 nM in data set [1] (setting [12]) and 10 µM in data set [2] (Human immunodeficiency virus 1). In addition, the “cytotoxicity (CD50)” value in data set [7] is reported as “not toxic”. In addition, in data set [8], the CC50 was > 200 µM.
